Experimental data taken from US5223485A, “Anaphylatoxin-receptor ligands” (Abbott Laboratories, priority 1991, dated 1993).
Bridge positions count the residues as written; N and C are the ends. Square brackets hold non-standard residues; d marks the D form. Peptide text beside a SMILES is read from it. * marks the point of attachment. X3 = CC(C)C[C@H](NC[C@H](C)N*)C(=O)N[C@H](C)C(=O)N[C@@H](CCCNC(=N)N)C(=O)O; X2 = C[C@H](CN[C@@H](CCCNC(=N)N)C(=O)O)N*; 2Nal = N[C@@H](Cc1ccc2ccccc2c1)C(=O)O; NEtPhe = CCN[C@@H](Cc1ccccc1)C(=O)O; Cha = N[C@@H](CC1CCCCC1)C(=O)O; dPen = CC(C)(S)[C@@H](N)C(=O)O; dNMeA = CN[C@H](C)C(=O)O; Boc = CC(C)(C)OC(=O)*; Bz = O=C(c1ccccc1)*; Ethyl(2-NH2) = NCC*; For = O=C*

Biological target: T1, C5a Receptor (Homo sapiens, UniProt P21730)
T1 construct: 2.5-25 μg/mL of purified PMNL membrane fragments; from tissue; host or cells: polymorphonuclear leukocyte (PMNL) membrane fragments
T1 sequence (P21730 1-350): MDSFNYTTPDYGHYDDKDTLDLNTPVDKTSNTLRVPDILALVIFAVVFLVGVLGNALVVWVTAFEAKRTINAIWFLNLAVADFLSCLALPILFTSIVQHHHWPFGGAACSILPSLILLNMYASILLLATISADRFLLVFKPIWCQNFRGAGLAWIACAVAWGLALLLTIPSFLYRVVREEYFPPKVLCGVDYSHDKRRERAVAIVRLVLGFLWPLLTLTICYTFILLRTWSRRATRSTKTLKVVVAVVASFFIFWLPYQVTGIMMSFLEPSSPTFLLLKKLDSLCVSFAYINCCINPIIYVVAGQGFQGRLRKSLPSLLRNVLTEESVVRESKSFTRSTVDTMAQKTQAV
Assay: Anaphylatoxin receptor binding Ki determination: inhibition of 125I-C5a binding to PMNL membrane fragments
Details: 0.03-1 nM 125I-C5a, 2.5-25 μg/mL purified PMNL membrane fragments, filtration; read-out: In vitro C5a Receptor Binding Potency Ki
Method: Specific inhibition of C5a binding activity of representative compounds of the present invention was measured using 0.03-1 nM ^125 I-C5a with 2.5-25 μg/mL of purified PMNL membrane fragments (Borregaard, N.; Heiple, J. M.; Simons, E. R.; and Clark, R. A. J. Cell. Biol. 1983, 97, 52-61.). Free and membrane-bound ligand were separated by filtration.

| SMILES | Ki |
| --- | --- |
| CC(C)C[C@H](NC(=O)[C@@H](Cc1ccccc1)NC(=O)[C@H](CC1CCCCC1)NC(=O)[C@H](C)NC(=O)[C@H](CCCCN)NC(=O)[C@@H](N)Cc1ccccc1)C(=O)N[C@H](C)C(=O)N[C@@H](CCCNC(=N)N)C(=O)O [Example 220, H-Phenylalanyl-Lysyl-Alanyl-{(2S)-2-Amino-3-cyclohexylpropanoyl}-DPhenylalanyl-Leucyl-DAlanyl-Arginyl-OH] (H-FKA[Cha][dF]L[dA]R-OH) | 220 nM |
| CC(C)C[C@H](NC(=O)[C@H](CC1CCCCC1)NC(=O)[C@H](CC1CCCCC1)NC(=O)[C@H](C)NC(=O)[C@H](CCCCN)NC(=O)[C@@H](N)Cc1ccccc1)C(=O)N(C)[C@H](C)C(=O)N[C@@H](CCCNC(=N)N)C(=O)O [Example 229, H-Phenylalanyl-Lysyl-Alanyl-{(2S)-2-Amino-3-cyclohexylpropanoyl}-{(2S)-2-Amino-3-cyclohexylpropanoyl}-Leucyl-(N-Methyl)DAlanyl-Arginyl-OH] (H-FKA[Cha][Cha]L[dNMeA]R-OH) | 33 nM |
| CC(C)C[C@H](NC(=O)[C@H](CC1CCCCC1)NC(=O)[C@H](Cc1c[nH]c2ccccc12)NC(=O)[C@H](C)NC(=O)[C@H](CCCCN)NC(=O)[C@@H](N)Cc1ccccc1)C(=O)N[C@H](C)C(=O)N[C@@H](CCCNC(=N)N)C(=O)O [Example 245, H-Phenylalanyl-Lysyl-Alanyl-Tryptophyl-{(2S)-2-Amino-3-cyclohexylpropanoyl}-Leucyl-DAlanyl-Arginyl-OH] (H-FKAW[Cha]L[dA]R-OH) | 52 nM |
| CC(C)C[C@H](NC(=O)[C@H](CC1CCCCC1)NC(=O)[C@@H](C)NC(=O)[C@H](C)NC(=O)[C@H](CCCCN)NC(=O)[C@@H](N)Cc1ccccc1)C(=O)N[C@H](C)C(=O)N[C@@H](CCCNC(=N)N)C(=O)O [Example 247, H-Phenylalanyl-Lysyl-Alanyl-DAlanyl-{(2S)-2-Amino-3-cyclohexylpropanoyl}-Leucyl-DAlanyl-Arginyl-OH] (H-FKA[dA][Cha]L[dA]R-OH) | 330 nM |
| C[C@H](NC(=O)[C@H](CCCCN)NC(=O)[C@@H](N)Cc1ccccc1)C(=O)N[C@@H](CC1CCCCC1)C(=O)NCC(=O)N[C@H](Cc1c[nH]c2ccccc12)C(=O)N[C@H](C)C(=O)N[C@@H](CCCNC(=N)N)C(=O)O [Example 249, H-Phenylalanyl-Lysyl-Alanyl-{(2S)-2-Amino-3-cyclohexylpropanoyl}-Glycyl-DTryptophyl-DAlanyl-Arginyl-OH] (H-FKA[Cha]G[dW][dA]R-OH) | 110 nM |
| CC(C)C[C@@H]1NC(=O)[C@H](CC2CCCCC2)NC(=O)[C@H](CC2CCCCC2)NC(=O)[C@H](C)NC(=O)[C@H](CCCCN)NC(=O)[C@H](NC(=O)c2ccccc2)C(C)(C)SSC[C@H](C(=O)N[C@@H](CCCNC(=N)N)C(=O)O)NC1=O [Example 279, Benzoyl-DPenicillaminyl*-Lysyl-Alanyl-{(2S)-2-Amino-3-cyclohexylpropanoyl)-{(2S)-2-Amino-3-cyclohexylpropanoyl}-Leucyl-DCysteinyl*-Arginyl-OH] (Bz-[dPen]KA[Cha][Cha]L[dC]R-OH; disulfide 1-7) | 4000 nM |
| CC(C)C[C@H](NC(=O)CNC(=O)[C@@H](Cc1ccccc1)NC(=O)[C@H](C)NC(=O)[C@H](CCCCN)NC(=O)[C@@H](N)Cc1ccccc1)C(=O)N[C@H](C)C(=O)N[C@@H](CCCNC(=N)N)C(=O)O [Example 282, H-Phenylalanyl-Lysyl-Alanyl-DPhenylalanyl-Glycyl-Leucyl-DAlanyl-Arginyl-OH] (H-FKA[dF]GL[dA]R-OH) | 29 nM |
| CC(C)C[C@H](NC(=O)[C@H](C)NC(=O)[C@H](C)NC(=O)[C@H](CCCCN)NC(=O)[C@@H](N)Cc1ccccc1)C(=O)N[C@@H](C)C(=O)N[C@H](C)C(=O)N[C@@H](CCCNC(=N)N)C(=O)O [Example 295, H-Phenylalanyl-Lysyl-Alanyl-Alanyl-Leucyl-Alanyl-DAlanyl-Arginyl-OH] (H-FKAALA[dA]R-OH) | 3300 nM |
| CC(C)C[C@H](NC(=O)[C@H](C)NC(=O)[C@H](CC1CCCCC1)NC(=O)[C@H](C)NC(=O)[C@H](CCCCN)NC(=O)[C@@H](N)Cc1ccccc1)C(=O)N(C)[C@H](C)C(=O)N[C@@H](CCCNC(=N)N)C(=O)O [Example 296, H-Phenylalanyl-Lysyl-Alanyl-{(2S)-2-Amino-3-cyclohexylpropanoyl}-Alanyl-Leucyl-(N-Methyl)DAlanyl-Arginyl-OH] (H-FKA[Cha]AL[dNMeA]R-OH) | 12 nM |
| CC(=O)N[C@@H](Cc1ccccc1)C(=O)N[C@@H](CCCCN)C(=O)N[C@@H](C)C(=O)N[C@@H](CC1CCCCC1)C(=O)N[C@@H](C)C(=O)N[C@@H](CC(C)C)C(=O)N[C@H](C)C(=O)N[C@@H](Cc1ccc(O)cc1)C(=O)O [Example 305, Ac-Phenylalanyl-Lysyl-Alanyl-{(2S)-2-Amino-3-cyclohexylpropanoyl}-Alanyl-Leucyl-DAlanyl-Tyrosyl-OH] (Ac-FKA[Cha]AL[dA]Y-OH) | 170 nM |
| CC(C)C[C@H](NC(=O)CNC(=O)[C@H](CC1CCCCC1)NC(=O)[C@@H](Cc1ccccc1)NC(=O)[C@H](CCCCN)NC(=O)[C@@H](N)Cc1ccccc1)C(=O)N[C@H](C)C(=O)N[C@@H](CCCNC(=N)N)C(=O)O [Example 316, H-Phenylalanyl-Lysyl-DPhenylalanyl-{(2S)-2-Amino-3-cyclohexylpropanoyl}-Glycyl-Leucyl-DAlanyl-Arginyl-OH] (H-FK[dF][Cha]GL[dA]R-OH) | 170 nM |
| CC(C)C[C@H](NC(=O)[C@H](CC1CCCCC1)NC(=O)[C@H](CC1CCCCC1)NC(=O)[C@H](C)NC(=O)[C@H](CCCCN)NC(=O)[C@@H](N)Cc1cn(C=O)c2ccccc12)C(=O)N[C@H](C)C(=O)N[C@@H](CCCNC(=N)N)C(=O)O [Example 338, H-Tryptophyl(N-formyl)-Lysyl-Alanyl-{(2S)-2-Amino-3-cyclohexylpropanoyl}-{(2S)-2-Amino-3-cyclohexylpropanoyl}-Leucyl-DAlanyl-Arginyl-OH] (H-W(For)KA[Cha][Cha]L[dA]R-OH) | 500 nM |
| CC(C)C[C@H](NC(=O)[C@H](CC1CCCCC1)NC(=O)[C@H](CC1CCCCC1)NC(=O)[C@H](C)NC(=O)[C@H](CSCCN)NC(=O)[C@@H](N)Cc1ccccc1)C(=O)N[C@H](C)C(=O)N[C@@H](CCCNC(=N)N)C(=O)O [Example 348, H-Phenylalanyl-(S-2-Aminoethyl)Cysteinyl-Alanyl-{(2S)-2-Amino-3-cyclohexylpropanoyl}-{(2S)-2-Amino-3-cyclohexylpropanoyl}-Leucyl-DAlanyl-Arginyl-OH] (H-FC(Ethyl(2-NH2))A[Cha][Cha]L[dA]R-OH) | 140 nM |
| CSCC[C@H](NC(=O)[C@H](CC(=O)O)NC(=O)[C@H](CCCCN)NC(=O)[C@@H](N)Cc1ccc2ccccc2c1)C(=O)N[C@@H](CCC(N)=O)C(=O)N[C@@H](CC(C)C)C(=O)NCC(=O)N[C@@H](CCCNC(=N)N)C(=O)O [Example 377, H-{3-(2'-Naphthyl)alanyl}-Lysyl-Aspartyl-Methionyl-Glutaminyl-Leucyl-Glycyl-Arginyl-OH] (H-[2Nal]KDMQLGR-OH) | 1800 nM |
| CCN[C@@H](Cc1ccccc1)C(=O)N[C@@H](CCCCN)C(=O)N[C@@H](C)C(=O)N[C@@H](CC1CCCCC1)C(=O)N[C@@H](C)C(=O)N[C@@H](CC(C)C)C(=O)N(C)[C@H](C)C(=O)N[C@@H](CCCNC(=N)N)C(=O)O [Example 402, (N-Ethyl)Phenylalanyl-Lysyl-Alanyl-{(2S)-2-Amino-3-cyclohexylpropanoyl}-Alanyl-Leucyl-(N-Methyl)DAlanyl-Arginyl-OH] (H-[NEtPhe]KA[Cha]AL[dNMeA]R-OH) | 11 nM |
| CC(C)C[C@H](NC(=O)[C@H](C)NC(=O)[C@H](CC1CCCCC1)NC(=O)[C@H](C)NC(=O)[C@H](CCCCN)NC(=O)[C@H](Cc1ccccc1)NC(=O)OC(C)(C)C)C(=O)N[C@H](C)C(=O)N[C@@H](CCCNC(=N)N)C(=O)O [Example 404, tert-Butyloxycarbonyl-Phenylalanyl-Lysyl-Alanyl-{(2S)-2-Amino-3-cyclohexylpropanoyl}-Alanyl-Leucyl-DAlanyl-Arginyl-OH] (Boc-FKA[Cha]AL[dA]R-OH) | 130 nM |
| CC(C)C[C@H](NC[C@H](C)NC(=O)[C@H](CC1CCCCC1)NC(=O)[C@H](C)NC(=O)[C@H](CCCCN)NC(=O)[C@@H](N)Cc1ccccc1)C(=O)N[C@H](C)C(=O)N[C@@H](CCCNC(=N)N)C(=O)O [Example 409, H-phenylalanyl-Lysyl-Alanyl-{(2S)-2-Amino-3-Cyclohexylpropanoyl}-Alanyl-.psi.{CH2 --NH}-Leucyl-DAlanyl-Arginyl-OH] (H-FKA[Cha]-X3) | 3800 nM |
| CC(C)C[C@H](NC(=O)[C@H](C)NC(=O)[C@H](CC1CCCCC1)NC(=O)[C@H](C)NC(=O)[C@H](CCCCN)NC(=O)[C@@H](N)Cc1ccccc1)C(=O)N[C@H](C)CN[C@@H](CCCNC(=N)N)C(=O)O [Example 421, H-Phenylalanyl-Lysyl-Alanyl-{(2S)-2-Amino-3-cyclohexylpropanoyl}-Alanyl-Leucyl-DAlanyl-.psi.{CH2 --NH}-Arginyl-OH] (H-FKA[Cha]AL-X2) | 3200 nM |
| CSCC[C@H](NC(=O)[C@H](CC(=O)O)NC(=O)[C@H](CCCCN)NC(=O)[C@@H](N)Cc1ccccc1)C(=O)N[C@@H](CCCNC(=N)N)C(=O)N[C@@H](CC(C)C)C(=O)NCC(=O)N[C@@H](CCCNC(=N)N)C(=O)O [Example 424, H-Phenylalanyl-Lysyl-Aspartyl-Methionyl-Arginyl-Leucyl-Glycyl-Arginyl-OH] (H-FKDMRLGR-OH) | 480 nM |
